Data published in patent US6043246A, “Urea derivatives” (Banyu Pharmaceutical Co., Ltd., priority 1996, dated 2000).

Biological target: T1, human NPY Y5 receptor (Homo sapiens, UniProt Q15761)
T1 construct: expressed in transfected cells; host or cells: COS-7, CHO and LM(tk-) cells (ATCC); vectors pcDNA3, pRc/RSV, pCI-neo; membrane preparations
T1 sequence (Q15761 1-445): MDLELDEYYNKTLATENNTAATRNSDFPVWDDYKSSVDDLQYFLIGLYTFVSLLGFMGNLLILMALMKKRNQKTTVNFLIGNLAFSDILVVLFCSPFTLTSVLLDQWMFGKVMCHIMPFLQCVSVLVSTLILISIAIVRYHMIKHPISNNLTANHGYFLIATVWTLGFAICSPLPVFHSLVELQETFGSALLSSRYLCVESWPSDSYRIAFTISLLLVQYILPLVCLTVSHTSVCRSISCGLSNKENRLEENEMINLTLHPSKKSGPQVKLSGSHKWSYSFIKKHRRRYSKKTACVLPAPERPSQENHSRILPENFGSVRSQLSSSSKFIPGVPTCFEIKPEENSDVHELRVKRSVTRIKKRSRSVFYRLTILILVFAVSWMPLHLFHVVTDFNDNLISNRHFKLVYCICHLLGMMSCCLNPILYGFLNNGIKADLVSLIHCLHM
Assay: Test of Inhibition of NPY Binding ([125I] peptide YY binding to membrane preparations)
Conditions: membranes of cells expressing NPY Y5 receptor, 25° C., 2 hours, read-out: concentration needed to inhibit 50% of the specific binding of peptide YY (IC50 value)
Excerpt: cDNA Sequence encoding a human NPY Y5 receptor [International Publication WO 96/16542] was cloned into expression vectors pcDNA3, pRc/RSV (manufactured by Invitrogen) and pCI-neo (manufactured by Promega). Using the cationic lipid method [see Proceedings of the National Academy of Science of the United States of America, vol.84, p.7413 (1987)], host cells COS-7, CHO and LM(tk-) (American Type Culture Collection) were transfected with the thus prepared expression vectors to obtain cells in which the NPY Y5 receptor had been expressed.
Each of the membrane preparations thus prepared from the cells in which the NPY Y5 receptor had been expressed was incubated together with each compound to be tested and 20,000 cpm of [^125 I] peptide YY (manufactured by Amersham) at 25° C. for 2 hours in an assay buffer solution (25 mM HEPES buffer, pH 7.4, containing 10 mM magnesium chloride, 1 mM phenylmethylsulfonyl fluoride and 0.1% bacitracin) and then, the reaction mixture was filtered through a glass filter GF/C. After washing with 50 mM Tris buffer, pH 7.4, containing 0.3% BSA, radioactivity on the glass filter was measured using a gamma counter. […] As the result, IC50 value of the compound of Example 17 was calculated to be […].

COc1ccc(-c2cc(NC(=O)N3CCN(c4cccc(Cl)c4)CC3)[nH]n2)cc1 [Example 17, 3-[4-(3-chlorophenyl)piperazinyl]carbonylamino-5-(4-methoxyphenyl)pyrazole]
IC50: 27 nM
